Data published in article PMC2761036 (Analytical biochemistry, 2009).

Columns and labels:
Format in all cases: biochemical
[1] = molecular target: T1, Sfp (Bacillus subtilis, UniProt P39135); assay: FRET phosphopantetheinyl transferase assay with purified enzyme
[2] = molecular target: T2, AcpS (Escherichia coli, UniProt P24224); assay: as above
[3] = molecular target: T2, AcpS; assay: HPLC enzyme kinetics
[4] = molecular target: T1, Sfp; assay: HPLC enzyme kinetics

T1 sequence (P39135 whole entry): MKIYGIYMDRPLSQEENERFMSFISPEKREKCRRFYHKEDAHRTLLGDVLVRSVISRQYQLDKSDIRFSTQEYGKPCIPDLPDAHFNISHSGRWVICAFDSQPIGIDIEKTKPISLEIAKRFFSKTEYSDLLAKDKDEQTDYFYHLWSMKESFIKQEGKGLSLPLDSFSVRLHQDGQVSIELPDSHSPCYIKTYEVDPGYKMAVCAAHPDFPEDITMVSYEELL
T2 sequence (P24224 2-126): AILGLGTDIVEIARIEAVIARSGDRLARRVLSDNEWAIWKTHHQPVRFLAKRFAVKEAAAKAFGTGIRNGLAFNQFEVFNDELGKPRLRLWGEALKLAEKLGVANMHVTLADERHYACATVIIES

Row | Molecule | IC50 [1] [µM] | IC50 [2] [µM] | Km [3] [µM] | Km [4] [µM]
1 | Nc1ncnc2c1ncn2[C@@H]1O[C@H](COP(=O)(O)O)[C@@H](OP(=O)(O)O)[C@H]1O [compound 3, 3’-phosphoadenosine-5’-phosphate] | 12.3 ± 1.1 | 92 ± 6 | – | –
2 | TAMRA-mCoA [compound 12] | – | – | 22 | 6
